# Assay results taken from paper PMC7481839, “Switchable foldamer ion channels with antibacterial activity” (Chemical Science, 2020).
# Where a SMILES comes first, the peptide text is derived from it.
# Test: Lucigenin assay of Cl− transport in vesicles
# Type: biochemical
# Conditions: 10 µM compound, interior NaNO3 200 mM, exterior NaCl (2 M), 0.762 mM lipid, 25°C, first-order curve fit
# Procedure: To confirm that chloride could pass through the bilayers, lucigenin assays[5a] were performed for 2, Cu(II)[1]Cl2 and Cu(II)[2]Cl2 (Fig. 5 and ESI, Fig. S10 ^†). The same lipids were used as for the HPTS assays and lucigenin was encapsulated with NaNO3 in the vesicles.
# Figure S9: Ionophoric activity determined through an HPTS assay in the presence of NaCl (100 mM) for: 2 (10 µM) in the absence (pink inverted triangles) and presence of FCCP (20 µM, blue triangles) and Cu(II)[2]Cl2 (6 µM) in the absence (red circles) and presence of FCCP (20 µM, black squares). Base pulse at 1 min, TX-100 added at 7 min.
# 5.4 Preparation of large unilamellar vesicles for lucigenin assays […]
# Lucigenin assays procedure and fluorescence normalisation were developed by a modification of published methods.10 An aliquot of the vesicle stock solution (100 μL) w as diluted to 1.9 mL with 200 mM NaNO 3 in water (pH = 7.4) (final lipid co ncentration in cuvette 0.762 mM). […] The cuvette was then placed into a Varian Cary Eclipse fluorescence spectrophotometer in the moderate stirring mode. The fluorescence emission at 505 nm was observed, resulting from excitation at 455 nm, over a period of seven minutes (420 seconds) at 25°C. […] The change in fluorescence was followed for six minutes before final lysis of the vesicles at seven minutes (420 s) by adding an aliquot of a 10 % v/v solution of Triton X-100 […]
smiles,measurement,value
CC(C)(NC(=O)C(C)(C)NC(=O)C(C)(C)NC(=O)C(C)(C)NC(=O)C(C)(C)n1cc(CN(Cc2ccccn2)Cc2ccccn2)nn1)C(=O)NC(C)(C)C(=O)NC(C)(C)C(=O)NC(C)(C)C(=O)OCC[Si](C)(C)C [foldamer 2] (HELM PEPTIDE1{[CC(C)(C(=O)[*:2])n1cc(CN(Cc2ccccn2)Cc2ccccn2)nn1].[Aib].[Aib].[Aib].[Aib].[Aib].[Aib].[Aib].[C[Si](C)(C)CCO[*:1]]}$$$$V2.0),kobs of Cl− transport (lucigenin assay),0.0052 s⁻¹
